For four compounds, EC50 and Emax results are on record in patent publication US20230265151A1, “GIP/GLP1 CO-AGONIST COMPOUNDS” (priority 2020, published 2023).

Common to all, as to type: cell-based
In experiment [1] the target is T1, hGCGR (Homo sapiens, UniProt P47871).
T1 construct: expressed in transfected cells
In words: Functional cAMP formation (HTRF) in HEK-293 clonal cells expressing hGCGR, 0.1% bovine casein, without or with 1.0% human serum albumin. Particulars: read-out: hGCGR EC50, nM (SEM, n). Put shortly: (§1)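 Cells were stimulated with peptide for 30 min at 37° C, then intracellular cAMP was measured by competitive HTRF (665/620 nm ratio) and converted to nM using a cAMP standard curve. Relative EC50 and Emax came from four-parameter logistic fits of percent maximal response against peptide concentration.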
In general terms: Cyclic AMP is a second messenger, typically raised through Gs and lowered through Gi signalling.

Experiment [2] has as its target T2, hGIPR (Homo sapiens, UniProt P48546).
T2 construct: expressed in transfected cells
T2 sequence (P48546 22-466): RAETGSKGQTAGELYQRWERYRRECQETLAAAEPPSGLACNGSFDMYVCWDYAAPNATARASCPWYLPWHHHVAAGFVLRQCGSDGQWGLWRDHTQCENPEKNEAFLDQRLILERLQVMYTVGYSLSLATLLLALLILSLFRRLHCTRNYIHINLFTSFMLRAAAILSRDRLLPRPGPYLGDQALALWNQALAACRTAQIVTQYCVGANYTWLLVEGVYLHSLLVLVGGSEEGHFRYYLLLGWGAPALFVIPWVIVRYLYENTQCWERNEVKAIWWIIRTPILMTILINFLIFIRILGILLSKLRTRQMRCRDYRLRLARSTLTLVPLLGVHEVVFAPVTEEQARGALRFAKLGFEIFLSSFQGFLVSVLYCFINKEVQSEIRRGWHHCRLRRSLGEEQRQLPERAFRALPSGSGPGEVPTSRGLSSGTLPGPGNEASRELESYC
In words: Functional cAMP formation (HTRF) in HEK-293 clonal cells expressing hGIPR, 0.1% bovine casein, without or with 1.0% human serum albumin. Particulars: for Emax: read-out: hGIPR Emax, % ± SEM; for EC50: geometric mean, read-out: hGIPR EC50, nM (SEM, n). Put shortly:
as §1

Experiment [3] addresses hGLP-1R (Homo sapiens, UniProt P43220). The experiment in a line: Functional cAMP formation (HTRF) in HEK-293 clonal cells expressing hGLP-1R, 0.1% bovine casein, without or with 1.0% human serum albumin. More on the design: expressed in transfected cells. Particulars: for Emax: percent of maximal response to GLP-1(7-36)NH2, read-out: hGLP-1R Emax, % ± SEM; for EC50: geometric mean, read-out: hGLP-1R EC50, nM (SEM, n). A digest of the protocol:
as §1

Setting [4] is: cAMP, 37° C., 0.1% bovine casein (no human serum albumin).
Setting [5] is: 0.1% bovine casein and 1.0% human serum albumin, 37° C., geometric mean.
[6] abbreviates: cAMP, incubated at 37° C., 0.1% bovine casein (no human serum albumin), geometric mean.
Setting [7] is: 0.1% bovine casein and 1.0% human serum albumin, 37° C.
Where [8] appears, read: HEK293, 0.1% bovine casein and 1.0% human serum albumin, 37° C., percent of maximal response to GIP(1-42)NH2.
Where [9] appears, read: HEK293, percent of maximal response to GIP(1-42)NH2, 37° C., 0.1% bovine casein, arithmetic mean.
Where [10] appears, read: cAMP, incubated at 37° C., 0.1% bovine casein (no human serum albumin).

The EC50 is the concentration that produces a half-maximal response. A word on the Emax: it is the maximal effect, on the per cent scale that the assay sets.

Where two headings read alike, the source gives them in different places. Bounds are passed on as bounds.

T1 sequence (P47871 26-477): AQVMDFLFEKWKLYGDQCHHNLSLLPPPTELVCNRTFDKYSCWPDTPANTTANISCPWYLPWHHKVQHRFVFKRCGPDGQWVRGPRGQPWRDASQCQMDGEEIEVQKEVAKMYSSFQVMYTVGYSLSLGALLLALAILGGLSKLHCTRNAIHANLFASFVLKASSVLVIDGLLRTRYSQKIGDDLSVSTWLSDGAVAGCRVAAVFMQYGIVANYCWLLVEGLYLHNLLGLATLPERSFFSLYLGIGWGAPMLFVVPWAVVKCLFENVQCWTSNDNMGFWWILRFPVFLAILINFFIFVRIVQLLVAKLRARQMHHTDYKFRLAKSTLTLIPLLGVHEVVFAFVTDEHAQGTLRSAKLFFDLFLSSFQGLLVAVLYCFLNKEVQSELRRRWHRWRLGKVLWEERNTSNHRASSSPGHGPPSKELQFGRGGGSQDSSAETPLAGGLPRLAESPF
Sequence of hGLP-1R (P43220 24-463): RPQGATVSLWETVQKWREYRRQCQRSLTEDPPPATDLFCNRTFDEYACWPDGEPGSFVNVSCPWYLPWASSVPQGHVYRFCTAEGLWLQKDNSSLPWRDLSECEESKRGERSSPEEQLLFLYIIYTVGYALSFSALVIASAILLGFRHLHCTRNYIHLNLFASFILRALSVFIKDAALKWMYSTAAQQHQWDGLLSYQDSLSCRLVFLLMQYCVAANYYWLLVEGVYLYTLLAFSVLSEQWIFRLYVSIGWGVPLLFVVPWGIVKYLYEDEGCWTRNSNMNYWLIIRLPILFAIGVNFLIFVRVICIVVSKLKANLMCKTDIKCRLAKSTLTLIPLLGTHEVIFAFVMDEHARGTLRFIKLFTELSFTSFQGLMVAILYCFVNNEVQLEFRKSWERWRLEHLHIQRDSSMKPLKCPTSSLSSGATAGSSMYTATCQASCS

Consider `CC[C@H](C)[C@H](NC(=O)[C@H](CC(C)C)NC(=O)[C@](C)(Cc1ccc(O)cc1)NC(=O)[C@@H](CCC(=O)O)NC(=O)[C@@H](NC(=O)[C@H](Cc1ccccc1)NC(=O)[C@H](CCC(=O)O)NC(=O)C(C)(C)NC(=O)[C@H](CCC(N)=O)NC(=O)[C@H](C)NC(=O)[C@H](CCCCNC(=O)COCCOCCNC(=O)CC[C@H](NC(=O)CCCCCCCCCCCCC(=O)O)C(=O)O)NC(=O)[C@H](CCCN)NC(=O)[C@H](CC(=O)O)NC(=O)[C@H](CC(C)C)NC(=O)[C@](C)(CC(C)C)NC(=O)[C@@H](NC(=O)C(C)(C)NC(=O)[C@@H](NC(=O)[C@H](CC(=O)O)NC(=O)[C@H](CO)NC(=O)[C@@H](NC(=O)[C@](C)(Cc1ccccc1F)NC(=O)[C@@H](NC(=O)CNC(=O)[C@H](CCC(=O)O)NC(=O)C(C)(C)NC(=O)[C@@H](N)Cc1ccc(O)cc1)[C@@H](C)O)[C@@H](C)O)C(C)C)[C@@H](C)CC)[C@@H](C)CC)C(=O)N[C@@H](CCCCNC(=O)COCCOCCNC(=O)CC[C@H](NC(=O)CCCCCCCCCCCCC(=O)O)C(=O)O)C(=O)NCC(=O)NCC(=O)N1CCC[C@H]1C(=O)N[C@@H](CO)C(=O)N[C@@H](CO)C(=O)NCC(=O)N[C@@H](C)C(=O)N1CCC[C@H]1C(=O)N1CCC[C@H]1C(=O)N1CCC[C@H]1C(=O)N[C@@H](CO)C(N)=O` [Example 399], for which the EC50 in experiment [1] (cAMP, 37° C., 0.1% bovine casein (no human serum albumin), geometric mean) was > 9950 nM; in experiment [1] (cAMP, 37° C., 0.1% bovine casein and 1.0% human serum albumin, geometric mean (SEM, n)), > 9950 nM; in experiment [2] (setting [4]) it was 0.0186 nM; in experiment [3] (setting [4]) it was 0.259 nM. In addition, the Emax in experiment [2] (HEK293, cAMP, 37° C., 0.1% bovine casein and 1.0% human serum albumin, percent of maximal response to GIP(1-42)NH2) turned out to be 86.8%; in experiment [3] (HEK293, cAMP, 37° C., 0.1% bovine casein and 1.0% human serum albumin) it was 89.7%; in experiment [3] (HEK293, cAMP, 37° C., 0.1% bovine casein, arithmetic mean), 91.9%.

In the case of `CC[C@H](C)[C@H](NC(=O)[C@H](CC(C)C)NC(=O)[C@](C)(Cc1ccc(O)cc1)NC(=O)[C@@H](CCC(=O)O)NC(=O)[C@@H](NC(=O)[C@H](Cc1ccccc1)NC(=O)[C@H](CCC(=O)O)NC(=O)C(C)(C)NC(=O)[C@H](CCC(N)=O)NC(=O)[C@H](C)NC(=O)[C@H](CCCCNC(=O)COCCOCCNC(=O)CC[C@H](NC(=O)CCCc1ccc(C(C)(C)C)cc1)C(=O)O)NC(=O)[C@H](CCCN)NC(=O)[C@H](CC(=O)O)NC(=O)[C@H](CC(C)C)NC(=O)[C@](C)(CC(C)C)NC(=O)[C@@H](NC(=O)[C@H](CO)NC(=O)[C@H](Cc1ccncc1)NC(=O)[C@H](CC(=O)O)NC(=O)[C@H](CO)NC(=O)[C@@H](NC(=O)[C@](C)(Cc1ccccc1F)NC(=O)[C@@H](NC(=O)CNC(=O)[C@H](CCC(=O)O)NC(=O)C(C)(C)NC(=O)[C@@H](N)Cc1ccc(O)cc1)[C@@H](C)O)[C@@H](C)O)[C@@H](C)CC)[C@@H](C)CC)C(=O)N[C@@H](CCCCNC(=O)COCCOCCNC(=O)CC[C@H](NC(=O)CCCc1ccc(C(C)(C)C)cc1)C(=O)O)C(=O)NCC(=O)NCC(=O)N1CCC[C@H]1C(=O)N[C@@H](CO)C(=O)N[C@@H](CO)C(=O)NCC(=O)N[C@@H](C)C(=O)N1CCC[C@H]1C(=O)N1CCC[C@H]1C(=O)N1CCC[C@H]1C(=O)N[C@@H](CO)C(N)=O` [Example 208], the EC50 in experiment [1] (setting [5]) is > 9950 nM; in experiment [1] (setting [6]), > 9950 nM; in experiment [2] (setting [7]), 0.126 nM; in experiment [2] (setting [10]), 0.018 nM; in experiment [3] (setting [7]) it was 1.58 nM. In addition, the Emax in experiment [2] (setting [8]) is 64.1%; in experiment [2] (setting [9]), 94.9%.

On to `CC[C@H](C)[C@H](NC(=O)[C@H](CC(C)C)NC(=O)[C@](C)(Cc1ccc(O)cc1)NC(=O)[C@@H](CCC(=O)O)NC(=O)[C@@H](NC(=O)[C@H](Cc1ccccc1)NC(=O)[C@H](CCC(=O)O)NC(=O)C(C)(C)NC(=O)[C@H](CCC(N)=O)NC(=O)[C@H](C)NC(=O)[C@H](CCCCNC(=O)COCCOCCNC(=O)COCCOCCNC(=O)CC[C@H](NC(=O)CCCCCCCCCCCCC(=O)O)C(=O)O)NC(=O)[C@H](CCCN)NC(=O)[C@H](CC(=O)O)NC(=O)[C@H](CC(C)C)NC(=O)[C@](C)(CC(C)C)NC(=O)[C@@H](NC(=O)[C@H](CO)NC(=O)[C@H](Cc1ccncc1)NC(=O)[C@H](CC(=O)O)NC(=O)[C@H](CO)NC(=O)[C@@H](NC(=O)[C@](C)(Cc1ccccc1F)NC(=O)[C@@H](NC(=O)CNC(=O)[C@H](CCC(=O)O)NC(=O)C(C)(C)NC(=O)[C@@H](N)Cc1ccc(O)cc1)[C@@H](C)O)[C@@H](C)O)[C@@H](C)CC)[C@@H](C)CC)C(=O)N[C@@H](CCCN)C(=O)NCC(=O)NCC(=O)N[C@@H](CCCCNC(=O)COCCOCCNC(=O)COCCOCCNC(=O)CC[C@H](NC(=O)CCCCCCCCCCCCC(=O)O)C(=O)O)C(=O)N[C@@H](CO)C(=O)N[C@@H](CO)C(=O)NCC(=O)N[C@@H](C)C(=O)N1CCC[C@H]1C(=O)N1CCC[C@H]1C(=O)N1CCC[C@H]1C(=O)N[C@@H](CO)C(N)=O` [Example 151], for which the EC50 in experiment [1] (setting [5]) was > 9950 nM; in experiment [1] (setting [6]) it was > 9950 nM; in experiment [2] (setting [7]), 0.306 nM; in experiment [2] (setting [10]), 0.0197 nM; in experiment [3] (setting [7]), 17.3 nM; in experiment [3] (setting [10]), 0.546 nM. For the same compound, the maximal response (Emax) was 87.5 ± 3.78% in experiment [2] (setting [8]); 112 ± 8.42% in experiment [3] (HEK293, 0.1% bovine casein and 1.0% human serum albumin, 37° C.).

For `CC[C@H](C)[C@H](NC(=O)[C@H](CC(C)C)NC(=O)[C@](C)(Cc1ccc(O)cc1)NC(=O)[C@@H](CCC(=O)O)NC(=O)[C@@H](NC(=O)[C@H](Cc1ccccc1)NC(=O)[C@H](CCC(=O)O)NC(=O)C(C)(C)NC(=O)[C@H](CCC(N)=O)NC(=O)[C@H](C)NC(=O)[C@H](CCCCNC(=O)COCCOCCNC(=O)COCCOCCNC(=O)CC[C@H](NC(=O)CCCCCCCCCCCCC(=O)O)C(=O)O)NC(=O)[C@H](CCCN)NC(=O)[C@H](CC(=O)O)NC(=O)[C@H](CC(C)C)NC(=O)[C@](C)(CC(C)C)NC(=O)[C@@H](NC(=O)[C@H](CO)NC(=O)[C@H](Cc1ccncc1)NC(=O)[C@H](CC(=O)O)NC(=O)[C@H](CO)NC(=O)[C@@H](NC(=O)[C@](C)(Cc1ccccc1F)NC(=O)[C@@H](NC(=O)CNC(=O)[C@H](CCC(=O)O)NC(=O)C(C)(C)NC(=O)[C@@H](N)Cc1ccc(O)cc1)[C@@H](C)O)[C@@H](C)O)[C@@H](C)CC)[C@@H](C)CC)C(=O)N[C@@H](CCC(=O)O)C(=O)NCC(=O)NCC(=O)N[C@@H](CCCCNC(=O)COCCOCCNC(=O)COCCOCCNC(=O)CC[C@H](NC(=O)CCCCCCCCCCCCC(=O)O)C(=O)O)C(=O)N[C@@H](CO)C(=O)N[C@@H](CO)C(=O)NCC(=O)N[C@@H](C)C(=O)N1CCC[C@H]1C(=O)N1CCC[C@H]1C(=O)N1CCC[C@H]1C(=O)N[C@@H](CCCN)C(N)=O` [Example 154], the concentration for a half-maximal effect (EC50) in experiment [1] (setting [5]) was > 9950 nM; in experiment [1] (setting [6]), > 9950 nM; in experiment [3] (setting [7]) it was 70.5 nM; in experiment [3] (setting [10]), 1.69 nM. The results for the maximum response (Emax) in experiment [2] (setting [8]) and in experiment [2] (setting [9]) were 93 ± 4.96% and 96.6 ± 3.26%, respectively.
